{"source": "patent EP2676666A1", "about": "“Compounds for use in diagnosis or therapy of vulnerable atherosclerotic plaques” (Eidgenössische Technische Hochschule Zürich (ETH), priority 2012, dated 2013)", "system": "human atherosclerotic plaques", "experiment": "Autoradiography binding study on human atherosclerotic plaque sections", "conditions": "2.5 nM; for maximal bound ^11C-Compound 4: average value (red line), 20 min, room temperature, values normalized to vulnerable plaque 8", "description": "Compound 4 was labeled with ^11C (specific activity ~350 GBq/µmol) and human atherosclerotic sections were incubated with 2.5 nM for 20 min, room temperature. Nonspecific binding was determined in the presence of excess nonradioactive Compound 4 (100 µM). After washing to remove unspecific bound ^11C-Compound 4, slides were exposed to a radiosensitive film (BAS-5000 Fujifilm) for 30 min. Calibration standards (2.5 - 0.02 nM) were included in the cassette. Films were developed using an automatic film processor (BAS 5000, Fuji) Quantitative analysis was performed using a computerized image analysis system (AIDA Image Analyzer Software). Optical density readings, corrected for background, were made and values standardized against the linear portion of a curve generated using standards and expressed as maximal bound ^11C-Compound 4. Values were normalized to patient \"vulnerable plaque 8\" (Fig. 5)."}
{"smiles": "[11CH3]N1CCC(NC(=O)c2ccc(-n3nc4c5cccc(F)c5[nH]nc-4c3=O)cc2)CC1", "note": "[^11C-Compound 4]", "values": [{"measurement": "maximal bound ^11C-Compound 4", "setting": "Fig. 5 (B)", "result": 0.7}, {"measurement": "maximal bound ^11C-Compound 4", "setting": "Fig. 5 (C), stable plaques", "result": 0.15}, {"measurement": "maximal bound ^11C-Compound 4", "setting": "Fig. 5 (C), vulnerable plaques", "result": 1.2}, {"measurement": "binding to vulnerable plaques compared to stable plaques", "setting": "conclusion in words from the autoradiography", "result": "higher affinity to vulnerable plaques compared to stable plaques"}]}
